Experimental data taken from patent US10323038B2, “Pyrazole compounds and methods of making and using same” (ABIDE THERAPEUTICS, INC., priority 2015, dated 2019).

How the values were obtained:
FAAH = FAAH (Mus musculus (Mouse), UniProt O08914); assay: In vitro competitive activity-based protein profiling, FAAH (mouse); type: biochemical; conditions: for inhibition at 1 µM: read-out: FAAH % inh. 1 μM (mouse)
Method in brief: (§1)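 Mouse brain membrane fraction or cell lysates (mouse assays) and human prefrontal cortex or cell membrane fractions (human assays), 1.0 mg/mL protein, were preincubated with varying inhibitor concentrations for 30 min at 37° C. FP-Rh or HT-01 probe (50 μM stock in DMSO) was then added for another 30 min at 37° C.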

MAGL = MAGL (Mus musculus (Mouse), UniProt O35678); assay: In vitro competitive activity-based protein profiling, MAGL (mouse); type: biochemical; conditions: for inhibition at 1 µM: read-out: MAGL % inh. 1 μM (mouse)
Chain of MAGL (O35678 whole entry): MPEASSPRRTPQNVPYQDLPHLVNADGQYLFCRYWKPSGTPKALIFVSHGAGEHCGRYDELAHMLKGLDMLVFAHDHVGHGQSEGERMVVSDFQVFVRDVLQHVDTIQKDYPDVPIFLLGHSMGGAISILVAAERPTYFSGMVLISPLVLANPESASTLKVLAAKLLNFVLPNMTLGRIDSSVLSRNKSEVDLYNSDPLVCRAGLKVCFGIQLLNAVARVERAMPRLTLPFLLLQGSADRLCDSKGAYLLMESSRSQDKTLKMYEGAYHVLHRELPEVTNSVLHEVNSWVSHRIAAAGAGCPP
Method in brief: as §1

Chain of FAAH (O08914 whole entry): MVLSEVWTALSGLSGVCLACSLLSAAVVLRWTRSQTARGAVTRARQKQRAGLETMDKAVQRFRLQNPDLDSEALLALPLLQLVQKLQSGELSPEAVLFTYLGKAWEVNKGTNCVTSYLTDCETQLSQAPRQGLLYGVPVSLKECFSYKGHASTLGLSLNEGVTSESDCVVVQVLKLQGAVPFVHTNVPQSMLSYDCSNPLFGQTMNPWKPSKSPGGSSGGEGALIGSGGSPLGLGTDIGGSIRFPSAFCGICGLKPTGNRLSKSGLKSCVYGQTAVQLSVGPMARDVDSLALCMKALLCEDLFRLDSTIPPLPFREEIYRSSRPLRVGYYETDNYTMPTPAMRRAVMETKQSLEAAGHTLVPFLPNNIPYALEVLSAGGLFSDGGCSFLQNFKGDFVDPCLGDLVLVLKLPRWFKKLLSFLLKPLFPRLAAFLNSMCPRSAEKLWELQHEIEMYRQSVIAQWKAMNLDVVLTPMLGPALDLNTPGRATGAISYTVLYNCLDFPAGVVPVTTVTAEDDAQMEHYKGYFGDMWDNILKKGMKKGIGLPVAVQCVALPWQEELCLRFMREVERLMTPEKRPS

IC50 (FAAH)	inhibition at 1 µM (FAAH)	IC50 (MAGL)	inhibition at 1 µM (MAGL)	SMILES
0.1 to 1 µM	≥ 75%	≤ 0.1 µM	≥ 75%	CC(=O)N(C)c1cnn(C(=O)N2CCC3(CCN(Cc4ccccc4Cl)C3)CC2)c1 [Example 186, N-(1-(2-(2-chlorobenzyl)-2,8-diazaspiro[4.5]decane-8-carbonyl)-1H-pyrazol-4-yl)-N-methylacetamide]
–	≥ 75%	–	≥ 75%	CC(=O)N(C)c1cnn(C(=O)N2CCC3(CCN(Cc4ccc(N5CCCC5)c(C(F)(F)F)c4)C3)C2)c1 (stereo not drawn) [Example 69, N-methyl-N-(1-(7-(4-(pyrrolidin-1-yl)-3-(trifluoromethyl)benzyl)-2,7-diazaspiro[4.4]nonane-2-carbonyl)-1H-pyrazol-4-yl)acetamide]
–	≥ 75%	–	≥ 75%	CC(=O)N(C)c1cnn(C(=O)N2CC3CN(Cc4ccc(OC(C)C)cc4C(F)(F)F)CC3C2)c1 (stereo not drawn) [Example 255, N-(1-(5-(4-isopropoxy-2-(trifluoromethyl)benzyl)octahydropyrrolo [3,4-c]pyrrole-2-carbonyl)-1H-pyrazol-4-yl)-N-methylacetamide]
–	0 to 25%	–	50 to 75%	CC(=O)N(C)c1cnn(C(=O)N2CCN(Cc3ccc(N4CCOCC4)cc3)CC2)c1 [Example 200, N-methyl-N-(1-(4-(4-morpholinobenzyl)piperazine-1-carbonyl)-1H-pyrazol-4-yl)acetamide]
≤ 0.1 µM	≥ 75%	≤ 0.1 µM	≥ 75%	CS(=O)(=O)Nc1cnn(C(=O)N2CCC3(CC2)CN(Cc2cc(Cl)ccc2C(F)(F)F)C3)c1 [Example 277, N-(1-(2-(5-chloro-2-(trifluoromethyl)benzyl)-2,7-diazaspiro[3.5]nonane-7-carbonyl)-1H-pyrazol-4-yl)methanesulfonamide]
≤ 0.1 µM	≥ 75%	≤ 0.1 µM	≥ 75%	CC(=O)N(C)c1cnn(C(=O)N2CCC3(CCN(Cc4cc(Cl)ccc4Cl)C3)C2)c1 (single isomer, unassigned) [Example 176, N-(1-(7-(2,5-dichlorobenzyl)-2,7-diazaspiro[4.4]nonane-2-carbonyl)-1H-pyrazol-4-yl)-N-methylacetamide]
–	0 to 25%	–	50 to 75%	CC(=O)N(C)c1cnn(C(=O)N2CC3CN(Cc4ccccc4N4CCOCC4)CC3C2)c1 (stereo not drawn) [Example 185, N-methyl-N-(1-(5-(2-morpholinobenzyl)octahydropyrrolo[3,4-c]pyrrole-2-carbonyl)-1H-pyrazol-4-yl)acetamide]
0.1 to 1 µM	≥ 75%	0.1 to 1 µM	≥ 75%	CC(=O)N(C)c1cnn(C(=O)N2CCN(Cc3cccc(F)c3)CC2)c1 [Example 205, N-(1-(4-(3-fluorobenzyl)piperazine-1-carbonyl)-1H-pyrazol-4-yl)-N-methylacetamide]
–	≥ 75%	–	≥ 75%	CC(=O)N(C)c1cnn(C(=O)N2CCC3(CCN(Cc4cc(Cl)cc(N5CCOCC5)c4)C3)C2)c1 (stereo not drawn) [Example 63, N-(1-(7-(3-chloro-5-morpholinobenzyl)-2,7-diazaspiro[4.4]nonane-2-carbonyl)-1H-pyrazol-4-yl)-N-methylacetamide]
≤ 0.1 µM	≥ 75%	≤ 0.1 µM	≥ 75%	CC(=O)N(C)c1cnn(C(=O)N2CC3CN(Cc4ccc(N5CCOCC5)cc4C(F)(F)F)CC3C2)c1 (stereo not drawn) [Example 131, N-methyl-N-(1-(5-(4-morpholino-2-(trifluoromethyl)benzyl)octahydropyrrolo[3,4-c]pyrrole-2-carbonyl)-1H-pyrazol-4-yl)acetamide]
≤ 0.1 µM	≥ 75%	≤ 0.1 µM	≥ 75%	CC(=O)N(C)c1cnn(C(=O)N2CC3CN(Cc4cc(C(F)(F)F)cc(C(F)(F)F)c4)CC3C2)c1 (stereo not drawn) [Example 116, N-(1-(5-(3,5-bis(trifluoromethyl)benzyl)octahydropyrrolo[3,4-c]pyrrole-2-carbonyl)-1H-pyrazol-4-yl)-N-methylacetamide]
–	≥ 75%	0.1 to 1 µM	≥ 75%	CC(=O)N(C)c1cnn(C(=O)N2CC3CN(Cc4cccc(Oc5ccccn5)c4)CC3C2)c1 (stereo not drawn) [Example 238, N-methyl-N-(1-(5-(3-(pyridin-2-yloxy)benzyl)octahydropyrrolo[3,4-c]pyrrole-2-carbonyl)-1H-pyrazol-4-yl)acetamide]
≤ 0.1 µM	≥ 75%	≤ 0.1 µM	≥ 75%	CC(=O)N(C)c1cnn(C(=O)N2CC3CN(Cc4ccccc4C(F)(F)F)CC3C2)c1 (stereo not drawn) [Example 96, N-methyl-N-(1-(5-(2-(trifluoromethyl)benzyl)octahydropyrrolo[3,4-c]pyrrole-2-carbonyl)-1H-pyrazol-4-yl)acetamide]
–	50 to 75%	–	≥ 75%	CC(=O)N(C)c1cnn(C(=O)N2CC3CN(Cc4ccc(N5C[C@@H]6C[C@H]5CN6C)cc4C(F)(F)F)CC3C2)c1 (stereo partly drawn) [Example 250, N-methyl-N-(1-(5-(4-((1S,4S)-5-methyl-2,5-diazabicyclo[2.2.1]heptan-2-yl)-2-(trifluoromethyl)benzyl)octahydropyrrolo [3,4-c]pyrrole-2-carbonyl)-1H-pyrazol-4-yl)acetamide]
≤ 0.1 µM	≥ 75%	≤ 0.1 µM	≥ 75%	CC(=O)N(C)c1cnn(C(=O)N2CC3CN(Cc4cccc(Oc5ccc(Cl)cc5)c4)CC3C2)c1 (stereo not drawn) [Example 237, N-(1-(5-(3-(4-chlorophenoxy)benzyl)octahydropyrrolo [3,4-c]pyrrole-2-carbonyl)-1H-pyrazol-4-yl)-N-methylacetamide]
≤ 0.1 µM	≥ 75%	0.1 to 1 µM	≥ 75%	CC(=O)N(C)c1cnn(C(=O)N2CC3CN(Cc4ccc(F)c(Cl)c4)CC3C2)c1 (stereo not drawn) [Example 122, N-(1-(5-(3-chloro-4 fluorobenzyl)octahydropyrrolo[3,4-c]pyrrole-2-carbonyl)-1H-pyrazol-4-yl)-N-methylacetamide]
0.1 to 1 µM	≥ 75%	1 to 10 µM	25 to 50%	CC(=O)N(C)c1cnn(C(=O)N2C[C@H]3C[C@@H](N(C)Cc4ccccc4Cl)C[C@H]3C2)c1 [Example 139, N-(1-(cis-5-((2-chlorobenzyl)(methyl)amino)octahydrocyclopenta[c]pyrrole-2-carbonyl)-1H-pyrazol-4-yl)-N-methylacetamide]
–	≥ 75%	–	25 to 50%	CS(=O)(=O)Nc1cnn(C(=O)N2CCN(Cc3ccc(-c4ccc(C(N)=O)nc4)cc3C(F)(F)F)CC2)c1 [Example 302]
–	25 to 50%	–	≥ 75%	CC(=O)N(C)c1cnn(C(=O)N2CCC3(CC2)CN(Cc2cccc(N4CCOCC4)c2)C3)c1 [Example 39, N-methyl-N-(1-(2-(3-morpholinobenzyl)-2,7-diazaspiro[3.5]nonane-7-carbonyl)-1H-pyrazol-4-yl)acetamide]
≤ 0.1 µM	≥ 75%	≤ 0.1 µM	≥ 75%	CC(=O)N(C)c1cnn(C(=O)N2C[C@H]3C[C@H](N(C)Cc4ccccc4Cl)C[C@H]3C2)c1 [Example 145, N-(1-(trans-5-((2-chlorobenzyl)(methyl)amino)octahydrocyclopenta[c]pyrrole-2-carbonyl)-1H-pyrazol-4-yl)-N-methylacetamide]
0.1 to 1 µM	≥ 75%	0.1 to 1 µM	≥ 75%	CC(=O)N(C)c1cnn(C(=O)N2CCN(Cc3ccccc3Cl)CC2)c1 [Example 192, N-(1-(4-(2-chlorobenzyl)piperazine-1-carbonyl)-1H-pyrazol-4-yl)-N-methylacetamide]
≤ 0.1 µM	≥ 75%	≤ 0.1 µM	≥ 75%	CC(=O)N(C)c1cnn(C(=O)N2C[C@H]3C[C@H](N(C)Cc4cccc(Cl)c4)C[C@H]3C2)c1 [Example 147, N-(1-(trans-5-((3-chlorobenzyl)(methyl)amino)octahydrocyclopenta[c]pyrrole-2-carbonyl)-1H-pyrazol-4-yl)-N-methylacetamide]
–	≥ 75%	–	≥ 75%	CC(=O)N(C)c1cnn(C(=O)N2CCC3(CC2)CN(Cc2ccc(N4CCOCC4)cc2Cl)C3)c1 [Example 28, N-(1-(2-(2-chloro-4-morpholinobenzyl)-2,7-diazaspiro[3.5]nonane-7-carbonyl)-1H-pyrazol-4-yl)-N-methylacetamide]
≤ 0.1 µM	≥ 75%	≤ 0.1 µM	≥ 75%	CC(=O)N(C)c1cnn(C(=O)N2CCC3(CC2)CN(Cc2ccccc2C(F)(F)F)C3)c1 [Example 44, N-methyl-N-(1-(2-(2-(trifluoromethyl)benzyl)-2,7-diazaspiro[3.5]nonane-7-carbonyl)-1H-pyrazol-4-yl)acetamide]

SMILES	IC50 (FAAH)	inhibition at 1 µM (FAAH)	IC50 (MAGL)	inhibition at 1 µM (MAGL)
CC(=O)N(C)c1cnn(C(=O)N2C[C@H]3C[C@H](N(C)Cc4ccc(N5C6CCC5COC6)cc4C(F)(F)F)C[C@H]3C2)c1 [Example 155, N-(1-(trans-5-((4-(3-oxa-8-azabicyclo[3.2.1]octan-8-yl)-2-(trifluoromethyl)benzyl)(methyl)amino)octahydrocyclopenta[c]pyrrole-2-carbonyl)-1H-pyrazol-4-yl)-N-methylacetamide]	–	≥ 75%	–	≥ 75%
CC(=O)N(C)c1cnn(C(=O)N2C[C@H]3C[C@@H](N(C)Cc4ccc(N5C6CCC5COC6)cc4C(F)(F)F)C[C@H]3C2)c1 [Example 149, N-(1-(cis-5-((4-(3-oxa-8-azabicyclo[3.2.1]octan-8-yl)-2-(trifluoromethyl)benzyl)(methyl)amino)octahydrocyclopenta[c]pyrrole-2-carbonyl)-1H-pyrazol-4-yl)-N-methylacetamide]	–	≥ 75%	–	≥ 75%
